Test results reported in US20260234188A1, “CHEMOKINE-BINDING PEPTIDES” (Oxford University Innovation Limited, priority 2022, published 2026).
Entries after “also recorded” stand apart in the source; their conditions may differ.

tested on: panel of up to 42 human chemokines; assay: Phage-display next generation sequencing screen of overlapping hexadecapeptide libraries, chemokines displayed on streptavidin beads; format: binding; conditions: log2E greater than 5, chemokines named by first part of UniProt Entry Name, peptides binding complement C5a (control) excluded
Excerpt: FIG. 1. Exemplar results from phage display screens. Phage-display libraries were constructed and analysed as described in (McLaughlin, 2013) (Tonikian, 2007). […] FIG. 1A, CC chemokines against evasin A library. FIG. 1B, CXC chemokines against the evasin B library. FIG. 1C, CXC and CX3C chemokines against the viral chemokine binding protein library. FIG. 1D, CXC chemokines against the chemokine library. […] Identified hexadecapeptides were mapped to the position in the originating protein (x-axis) and to fold enrichment (log 2 E, left y-axis). Regions of interest (ROI) were defined where the cumulative residue log 2 E, (clog 2 E:r, right y-axis) exceeds the 95% upper confidence interval of the median clog 2 E:r for the entire protein (indicated as a horizontal dotted line in each panel). Proteins are referred to by their UniProt ID.
Hexadecapeptides were identified using a phage-display next generation sequencing approach (McLaughlin, 2013). Libraries containing a total of 55662 overlapping peptides (from the tick chemokine binding proteins shown in Tables 3A and 3B, the viral chemokine binding proteins shown in Table 3C, the human chemokines shown in Table 3 E, and the human/viral chemokine receptors and other chemokine-binding proteins shown in Table 3D) were first constructed, and then screened against a panel of up to 42 human chemokines, as shown in Table 3F.

Substance	Chemokines Bound
CR7367 (GMPPADEDYSPCMLET)	CCL11, CCL18,; also recorded: CCL19, CCL20
CR7477 (GPGPWMNILWAWFIFW)	CCL17, CCL18, and CCL19, CCL20, and CCL25, CXL13, and IL8
CR7642 (GSMLLSVLFTLYVSTL)	CCL25, CXL10,; also recorded: CXL11, CXL13
CR7666 (GSVSLVNLLTIIGCLW)	CCL17, CCL20,; also recorded: CCL25
CR7814 (GVVTSVITWLVAVFAS)	CCL11, CCL2, and CCL22, CCL8, and IL8
CR7815 (GVVTSVITWVVAVFAS)	CCL1, CCL15,; also recorded: CCL2, CCL20,; also recorded: CCL22, CCL25,; also recorded: CCL28, CCL8,; also recorded: CXL10, CXL13
CR7818 (GVWLMAIVGTFLNMLV)	CCL1, CCL18,; also recorded: CXL11, SDF1,; also recorded: CXL14
CR7819 (GVWLMAIVGTFLNVLV)	CCL17, CCL18, and CCL2, CCL20, and CCL22, CXL11, and SDF1, CXL13, and IL8
CR7823 (GVWLMSIVGTFLNVLV)	CCL11, CCL17, and CCL18, CCL2, and CCL8, CXL10, and CXL11, CXL14, and IL8
CR7854 (GWVFIFSSIQLATVVF)	CCL1, CCL15, and CCL17, CCL19, and CCL20, CCL22, and CCL28, X3CL1, and CXL10, CXL11, and SDF1, CXL13, and IL8
CR7856 (GWVFIFSSIQLCTVVF)	CCL1, CCL19, and CCL20, CCL25, and CXL10, SDF1, and IL8
CR7860 (GWVLGDFLCKLLNMIF)	CCL1, CCL17, and CCL18, CCL19, and CCL2, CCL20, and CCL22, CCL28, and CCL8, CXL10, and SDF1, CXL13, and IL8
CR8126 (HIGYFGGIFFIILLTI)	CCL18, CCL22, and CCL25, CXL11, and IL8
CR8251 (HNKTLSFISLLILSFL)	CCL2, X3CL1, and IL8
CR8339 (HRTVKLIFAIVVAYFL)	CCL28, X3CL1,; also recorded: CXL11, SDF1,; also recorded: CXL14
CR8427 (HTLRMTIFCLVLPLLV)	CCL28, CXL10, and CXL11, SDF1, and IL8
CR8437 (HTVLLSWKVLLTMVWG)	CCL1, CCL18,; also recorded: CCL19, CCL20,; also recorded: CXL13
CR8496 (HWGWVLGDFLCKLLNM)	CCL11, CCL17, and CCL18, CCL19, and CCL20, CCL22, and CCL25, CCL28, and X3CL1, CXL10, and CXL11, SDF1, and CXL13, CXL14, and IL8
CR8546 (IAAFSWFMLSLPLLFL)	CCL22, CCL28,; also recorded: CXL14
CR8655 (IAVFGLLGNILVVITF)	CCL17, CCL22,; also recorded: CCL25, IL8
CR8675 (IAYSLIAVFGLLGNIL)	CCL17, CCL22,; also recorded: CCL25, CCL28,; also recorded: CXL11

Substance	Chemokines Bound
CR8677 (IAYSLISVFGLLGNIL)	CCL2, CXL10,; also recorded: CXL13
CR8784 (IFAIVVAYFLSWGPYN)	CCL1, CCL15, and CCL17, CCL18, and CCL2, CCL20, and CCL22, CCL25, and CCL28, X3CL1, and CXL10, CXL11, and SDF1, CXL14, and IL8
CR8812 (IFFIILLTIDRYLAIV)	CCL18, CCL19,; also recorded: CCL22, CXL14
CR8813 (IFFIILLTIDRYLAVV)	CCL17, CCL18,; also recorded: CCL20, CCL25,; also recorded: CCL28, CXL10,; also recorded: CXL11, CXL13,; also recorded: CXL14, IL8
CR8966 (IFWWIFAVIIAIPHFM)	IL8
CR9087 (IIALVVWGLSVIISSS)	CCL1, CCL17,; also recorded: CCL18, CCL19,; also recorded: CCL2, CCL20,; also recorded: CCL22, CCL25,; also recorded: CCL28, X3CL1,; also recorded: CXL10, CXL11,; also recorded: SDF1, CXL13,; also recorded: CXL14, IL8
CR9111 (IIFSYVVVFLVAWLPY)	CCL20, CCL22,; also recorded: CCL28, CXL11,; also recorded: CXL13
CR9113 (IIFSYVVVFLVSWLPY)	CCL17, CCL20, and CCL22, CCL28, and X3CL1, CXL10, and CXL11, SDF1, and CXL13, CXL14, and IL8
CR9141 (IIIWALAILASMPGLY)	CCL20, CCL28,; also recorded: CXL11, SDF1
CR9192 (IISLVVWGLSVIISSS)	CCL18, CXL10, and CXL13, CXL14, and IL8
CR9218 (IITSVLAWVTAILATL)	CCL17, CCL18, and CXL11, CXL14, and IL8
CR9282 (ILAFFAAWLPYYIGIS)	CCL11, CCL18,; also recorded: X3CL1, CXL10,; also recorded: CXL11, CXL13
CR9284 (ILAFFASWLPYYIGIS)	CCL17, CCL18,; also recorded: CCL25
CR9291 (ILALVGNTLALWLFIR)	CCL2, CCL22,; also recorded: CCL25, IL8
CR9432 (ILMFLSDFSFIFSSWA)	CCL1, CXL10,; also recorded: CXL11, SDF1,; also recorded: CXL14, IL8
CR9515: chemokine binding peptide of Table 5A used in FIG. 5 combinations (ILYQFELFGFTLIFFK)	CCL18, CCL19,; also recorded: CXL10, CXL14
CR9587 (IMYSIIAFVGLLGNGL)	CCL17, CCL18,; also recorded: CCL20, CXL14
CR9887 (ISLFAGVSFLINLSMD)	CCL17, CCL18,; also recorded: CCL25
CR9889 (ISLLAEVLMFLFPNII)	CCL17, CCL18,; also recorded: CCL20, CCL25,; also recorded: CCL28, CXL13
CR9948 (ISVAWHWVFGSFLSKM)	CCL17, CCL18, and CCL20, CCL22, and CCL25, X3CL1, and CXL11, CXL14, and IL8

same assay, conditions: log2E greater than 5, chemokines named by first part of UniProt entry name, C5a (control) binders excluded

Substance	Chemokines Bound
CR10008 (ITLFASDFVLMWAVFF)	CCL1, CCL22,; also recorded: CXL10, CXL11
CR10175 (IVTIIITFFLSWSPYH)	CCL1, CCL17,; also recorded: CCL18, CCL20,; also recorded: CCL22, CCL25,; also recorded: CCL28, X3CL1,; also recorded: CXL10, CXL11,; also recorded: CXL14
CR10275 (IYLLNLAISDLFFLLT)	CCL17, CCL18,; also recorded: CCL25, CXL10,; also recorded: CXL13
CR10279 (IYLLNLAISNLLFLVT)	CCL28, SDF1,; also recorded: CXL13, IL8
CR10681 (KIIFSYVVVFLVAWLP)	CCL25, CCL28, and SDF1
CR10825 (KLIFAIVVAYFLSWGP)	CCL17, CCL28,; also recorded: CXL14
CR11295 (KVLWALQYIGLGFFAA)	CCL17, CCL18,; also recorded: CCL2, CXL10,; also recorded: SDF1, CXL14
CR11478 (LAFIYVLMFLANAIGN)	CCL1, CCL20,; also recorded: CXL11, SDF1,; also recorded: CXL13, CXL14
CR11556 (LAKLEAFFLNLSIYWS)	CCL18, CCL2, and CCL25, CCL28, and CCL8, X3CL1, and CXL10, CXL11, and SDF1, CXL13, and IL8
CR11604 (LALSISLLAEVLMFLF)	CCL17, CCL18,; also recorded: CCL20, CCL25,; also recorded: CXL10, CXL13,; also recorded: CXL14, IL8
CR11719 (LATFKILIAIVWGVMP)	CCL1, CCL18,; also recorded: CCL20, CCL22,; also recorded: CCL25, CCL28,; also recorded: CXL10, SDF1
CR11720 (LATFKILICIVWGVMP)	CCL17, CCL18,; also recorded: CCL19, CCL20,; also recorded: CCL25, CXL10,; also recorded: CXL14
CR11776 (LAVKIVFSFIWGVLPT)	CCL17, CCL18,; also recorded: CCL19, CCL20,; also recorded: CCL22, CCL25,; also recorded: CCL8, X3CL1,; also recorded: CXL10, CXL11,; also recorded: SDF1, CXL13,; also recorded: CXL14, IL8
CR11907: chemokine binding peptide of Table 5A used in FIG. 5 combinations (LDFILALVGNTLALWL)	CCL11, CCL18, and CCL2
CR12037 (LENMLFASFYLLDFIL)	CCL22, CXL10,; also recorded: CXL11, SDF1,; also recorded: CXL13, IL8
CR12163 (LFIGIKIVYAFLWGIF)	CCL18, CCL19,; also recorded: CCL2, CCL25,; also recorded: CCL28, X3CL1,; also recorded: CXL10, SDF1,; also recorded: CXL13, CXL14

Substance	Chemokines Bound
CR12240 (LFMFVLSVLGNLTVVS)	CCL17, CCL18,; also recorded: CCL19, CCL25,; also recorded: CCL28, CXL10,; also recorded: CXL11, SDF1
CR12277 (LFSFNRFFCQLVYFIY)	CCL18, CCL25,; also recorded: X3CL1, CXL10
CR12308 (LFTLYVSTLDFCIVFI)	CCL20, CCL22, and CCL28, CXL10, and SDF1
CR12330 (LFVMLFSYGFTLRTLF)	CCL17, CCL18, and CCL20, CCL22, and CCL28, CXL14, and IL8
CR12432 (LGIILFSYVEILRTLF)	CCL17, CCL18, and CXL10, CXL11, and IL8
CR12439 (LGIMLFAYSMIIRTLQ)	CCL17, CCL18,; also recorded: CCL20, CCL25
CR12569 (LGVWLMAIVGTFLNVL)	CCL2, X3CL1,; also recorded: CXL10, CXL11
CR12869 (LIWVISLLVSLPQIIY)	CCL17, CCL18, and X3CL1, CXL14, and IL8
CR12872 (LIYLFLLLWEDTQGWG)	CCL1, CCL18, and CCL19, CCL2, and CCL20, CCL25, and CXL10, SDF1, and IL8
CR13108 (LLFFVFSFPYHVLNLL)	CCL17, CCL18,; also recorded: CXL10, CXL11,; also recorded: CXL14, IL8
CR13203 (LLIMLFSYGFTLRTLF)	CCL18, CCL22, and CCL28, X3CL1, and SDF1
CR13324 (LLMLGLELLFGFFIPL)	CCL1, CCL11,; also recorded: CCL17, CCL18,; also recorded: CCL2, CCL20,; also recorded: CCL22, CCL28,; also recorded: CXL10, CXL11,; also recorded: SDF1, CXL14
CR13391 (LLQALYSAVVPLIYSC)	CCL1, CCL18,; also recorded: CXL14
CR13458 (LLSVLFTLYVSTLDFS)	CCL18, CCL2, and CCL20, CXL10, and CXL11, SDF1, and CXL13, CXL14, and IL8
CR13507 (LLTWLAGLIFSVPAAV)	CCL1, CCL11,; also recorded: CCL17, CCL18,; also recorded: CCL19, CCL2,; also recorded: CCL20, CCL22,; also recorded: CCL25, CCL28,; also recorded: X3CL1, CXL10,; also recorded: CXL11, SDF1,; also recorded: CXL14, IL8
CR13605 (LMFMIFAYTFIVKTLV)	CCL17, CCL18,; also recorded: CCL20, CCL22,; also recorded: CXL10
